Reference: patent publication US4709027A, “Bicyclic spirosulfonimides with psychotropic activity” (American Home Products Corporation, priority 1986, dated 1987)
Where two headings read alike, the source gives them in different places.

Key:
[1] = conditioned avoidance (discrete trial) test; assay type: in vivo, male CD rats; conditions: Rattus norvegicus, po, rats, read-out: AB50 (dose producing 50% block in avoidance responding), discrete trial
Experimental: The antipsychotic activity of the compounds of the invention is assessed via the conditioned avoidance (discrete trial) test. This test has excellent clinical correlation for antipsychotic activity.
Male CD rats (Charles River) maintained at approximately 400-450 gm body weight are used. Rats trained previously are placed in plexiglass experimental chambers equipped with a response lever, house light, and sonalert. A steel grid floor is wired for presentation of electric shock. Each trial consists of a fifteen-second warning tone (conditioned stimulus), continuing for an additional fifteen seconds accompanied by electric shock, (unconditioned stimulus). The rat can terminate a trial at any point by depression of the response lever. […]
The following experimental parameters are recorded by computer; (1) the number of interval responses, (2) the number of avoidance responses, (3) the number of escape responses, and (4) the number of trials in which no response occurred.
Response counts are summed over all subjects at a given dose. […] This number is expressed as a percentage of the total trials. Control performance is arbitrarily assigned a value of 100% for avoidance and the dose calculated to produce a 50% block in avoidance responding (AB50) is obtained from a dose-effect regression line fitted by the method of least squares. […]

[2] = test system: 5-HT-1A serotonin receptor; test: ex vivo inhibition of 5-HT-1A serotonin receptor binding (3H-8-OH-DPAT, hippocampal membranes); parameters: species or system rats; conditions: at 1 μM of drug concentration
Experimental: Several groups of rats (4-6 rats/group) are injected with test compound or the appropriate vehicle. Thirty minutes later, unless otherwise noted, rats are decapitated and their brains removed. Various brain regions are dissected and rapidly frozen and maintained at -70° C. until used.
Hippocampal tissue is dissected and homogenized on ice in 40 vols of buffer (50 mM Tris HCl, pH=7.7) using a Polytron homogenizer at setting 5 for 3×15 sec bursts. The homogenate is then centrifuged at 20,000 rpm (RC5-B; 50,000 g) and the supernatant discarded. The pellet is resuspended in 40 vols of the same buffer and incubated at 37° C. for 10 minutes to aid in the removal of endogenous serotonin. the homogenate is then centrifuged (as above) and the supernatant discarded. […]
The homogenate (50 μl; 0.4-0.6 mg protein/sample) is incubated with 100 μl (1.5-1.8 nM) ^3 H-8-hydroxy-2-(di-n-propylamino)tetraline in a final volume of 2 ml of buffer for 10 minutes at 37° C. […] The vials are then counted in a Packard 460 CD scintillation counter.
Specific binding is calculated for each of the treatment protocols and is defined as total binding less binding in the presence of excess unlabeled serotonin (1 μM). Specific binding obtained in vehicle-treated rats is compared to that obtained in animals receiving a single or various doses of test compound and expressed as percent of control.

[3] = conditioned avoidance (shelf-jump response) test; assay type: in vivo, male CD rats; conditions: i.p., rats
Source text: A test designed to determine the potential antipsychotic activity of the compounds of the invention is the conditioned avoidance (shelf-jump response) test.
Male CD rats (Charles River) maintained at approximately 400-450 gm body weight are used. […] A moveable wall, controlled by a motor, determines whether the rat has access to the shelf at any time during the experiment. The experimental chamber also contains a house light and sonalert. A steel grid floor in the main chamber is wired for presentation of electric shock. Each trial consists of a fifteen-second warning tone (conditioned stimulus), continuing for an additional fifteen seconds accompanied by electric shock, (unconditioned stimulus). A response (jumping onto the exposed shelf of the upper chamber) occurring during the initial fifteen-second warning tone is considered an avoidance response, while a response occurring during shock delivery is considered an escape response. Trials are presented on a fixed interval schedule of one minute. The session consists of thirty-six trials. Animals are run twice weekly with control sessions always preceding a drug run, and with at least one day intervening. Compounds are administered i.p. or p.o. at appropriate pre-treatment times to a minimum of five rats at each dose level over a range of doses.
The following experimental parameters are recorded by computer: (1) the number of avoidance responses, (2) the number of escape responses, and (3) the number of trials in which no response occurred.
Response counts are summed over all subjects at a given dose. […] This number is expressed as a percentage of the total trials. Control performance is arbitrarily assigned a value of 100% for avoidance and the dose calculated to produce a 50% block in avoidance responding (AB50) is obtained from a dose-effect regression line fitted by the method of least squares. Potential anti-psychotic compounds suppress avoidance responding and increase escape responding.

Structure (SMILES): O=C1CC2(CCCC2)CC(=O)N1CCCCN1CCN(c2ncccn2)CC1 [Buspirone, 8-[4-[4-(2-pyrimidinyl)-1-piperazinyl]butyl]-8-azaspiro[4.5]decane-7,9-dione, reference compound]
- ED50 ([1]; peroral administration, range in parentheses): 47.9 mg/kg

Structure (SMILES): CC1CC(=O)N(CCCCN2CCN(c3cncc(Cl)n3)CC2)S(=O)(=O)N1 (stereo not drawn) [Example 1, 2-[4-[4-(6-Chloro-2-pyrazinyl)-1-piperazinyl]butyl]-5,6-dihydro-5-methyl-2H-1,2,6-thiadiazin-3(4H)-one 1,1 dioxide]
- displacement of specific 3H-8-OH-DPAT binding from hippocampal membranes [2]: 61%
- ED50 ([1]; perorally, unit inferred): 32.5 mg/kg
- Active at (dose), shelf-jump [3]: 40 mg/kg

Structure (SMILES): O=C1N(CCCCN2CCN(c3ncccn3)CC2)S(=O)(=O)NC12CCCCC2 [Example 2, 3-[4-[4-(2-Pyrimidinyl)-1-piperazinyl]butyl]2-thia-1,3-diazaspiro[4,5]decan-4-one 2,2-dioxide]
- Active at (dose), shelf-jump [3]: 40 mg/kg

Structure (SMILES): CC1CC(=O)N(CCCCN2CCN(c3ncccn3)CC2)S(=O)(=O)N1 (stereo not drawn) [Example 3, 5,6-Dihydro-5-methyl-2-[4-[4-(2-pyrimidinyl)-1-piperazinyl]butyl]-2H-1,2,6-thiadiazin-3(4H)-one 1,1-dioxide]
- Active at (dose), shelf-jump [3]: 40 mg/kg
